Assay results published in PubChem BioAssay (NCI).
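Exposure lasted 48 hours, with cells grown in 96-well plates and compounds tested at five concentrations. TGI: concentration producing complete growth inhibition.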

How the values were obtained:
Test in all cases: DTP human tumour cell line panel, 48 h
NCI-H23 lung = tested on: NCI-H23 lung
HOP-92 NSCLC = tested on: HOP-92 NSCLC
DMS 114 small cell lung = tested on: DMS 114 small cell lung
NCI-H460 lung = tested on: NCI-H460 lung
KM20L2 colon = tested on: KM20L2 colon
OVCAR-8 ovarian = tested on: OVCAR-8 ovarian
SK-MEL-5 melanoma = tested on: SK-MEL-5 melanoma
SF-539 CNS = tested on: SF-539 CNS
SF-268 CNS = tested on: SF-268 CNS
SNB-75 CNS = tested on: SNB-75 CNS
U251 CNS = tested on: U251 CNS
A498 renal = tested on: A498 renal
NCI-H522 lung = tested on: NCI-H522 lung
786-0 renal = tested on: 786-0 renal
XF 498 CNS = tested on: XF 498 CNS
HOP-18 NSCLC = tested on: HOP-18 NSCLC
SW-620 colon = tested on: SW-620 colon
HCC-2998 colon = tested on: HCC-2998 colon
UO-31 renal = tested on: UO-31 renal
HCT-15 colon = tested on: HCT-15 colon
COLO 205 colon = tested on: COLO 205 colon
MOLT-4 leukemia = tested on: MOLT-4 leukemia
EKVX NSCLC = tested on: EKVX NSCLC
HCT-116 colon = tested on: HCT-116 colon
ACHN renal = tested on: ACHN renal
UACC-62 melanoma = tested on: UACC-62 melanoma
A549 NSCLC = tested on: A549 NSCLC
SK-OV-3 ovarian = tested on: SK-OV-3 ovarian
IGROV1 ovarian = tested on: IGROV1 ovarian
SNB-19 CNS = tested on: SNB-19 CNS
HOP-62 NSCLC = tested on: HOP-62 NSCLC
SN12C renal = tested on: SN12C renal
RPMI-8226 leukemia = tested on: RPMI-8226 leukemia
SK-MEL-28 melanoma = tested on: SK-MEL-28 melanoma
M14 melanoma = tested on: M14 melanoma
NCI-H226 lung = tested on: NCI-H226 lung
CCRF-CEM leukemia = tested on: CCRF-CEM leukemia
TK-10 renal = tested on: TK-10 renal
SK-MEL-2 melanoma = tested on: SK-MEL-2 melanoma
OVCAR-4 ovarian = tested on: OVCAR-4 ovarian
M19-MEL melanoma = tested on: M19-MEL melanoma
LOX IMVI melanoma = tested on: LOX IMVI melanoma
RXF 393 renal = tested on: RXF 393 renal
DMS 273 small cell lung = tested on: DMS 273 small cell lung
RXF-631 renal = tested on: RXF-631 renal
K-562 leukemia = tested on: K-562 leukemia
MALME-3M melanoma = tested on: MALME-3M melanoma
HL-60(TB) leukemia = tested on: HL-60(TB) leukemia
MDA-N = tested on: MDA-N
MDA-MB-435 = tested on: MDA-MB-435
SR leukemia = tested on: SR leukemia
HT29 colon = tested on: HT29 colon
MCF7 breast = tested on: MCF7 breast
LXFL 529 NSCLC = tested on: LXFL 529 NSCLC
OVCAR-5 ovarian = tested on: OVCAR-5 ovarian
SF-295 CNS = tested on: SF-295 CNS
BT-549 breast = tested on: BT-549 breast
CAKI-1 renal = tested on: CAKI-1 renal
UACC-257 melanoma = tested on: UACC-257 melanoma
OVCAR-3 ovarian = tested on: OVCAR-3 ovarian
KM12 colon = tested on: KM12 colon
DU-145 prostate = tested on: DU-145 prostate
NCI/ADR-RES ovarian = tested on: NCI/ADR-RES ovarian
DLD-1 colon = tested on: DLD-1 colon
SNB-78 CNS = tested on: SNB-78 CNS
PC-3 prostate = tested on: PC-3 prostate
HS 578T breast = tested on: HS 578T breast

Structure (SMILES): N#CNCC(COCc1ccccc1)c1ccccc1 (configuration not stated)
- TGI (NCI-H23 lung): > 100 µM
- TGI (HOP-92 NSCLC): > 100 µM
- TGI (DMS 114 small cell lung): > 100 µM
- TGI (NCI-H460 lung): > 100 µM
- TGI (KM20L2 colon): > 100 µM
- TGI (OVCAR-8 ovarian): > 100 µM
- TGI (SK-MEL-5 melanoma): > 100 µM
- TGI (SF-539 CNS): > 100 µM
- TGI (SF-268 CNS): > 100 µM
- TGI (SNB-75 CNS): > 100 µM
- TGI (U251 CNS): > 100 µM
- TGI (A498 renal): > 100 µM
- TGI (NCI-H522 lung): > 100 µM
- TGI (786-0 renal): > 100 µM
- TGI (XF 498 CNS): > 100 µM
- TGI (HOP-18 NSCLC): > 100 µM
- TGI (SW-620 colon): > 100 µM
- TGI (HCC-2998 colon): > 100 µM
- TGI (UO-31 renal): > 100 µM
- TGI (HCT-15 colon): > 100 µM
- TGI (COLO 205 colon): > 100 µM
- TGI (MOLT-4 leukemia): > 100 µM
- TGI (EKVX NSCLC): > 100 µM
- TGI (HCT-116 colon): > 100 µM
- TGI (ACHN renal): > 100 µM
- TGI (UACC-62 melanoma): > 100 µM
- TGI (A549 NSCLC): > 100 µM
- TGI (SK-OV-3 ovarian): > 100 µM
- TGI (IGROV1 ovarian): > 100 µM
- TGI (SNB-19 CNS): > 100 µM
- TGI (HOP-62 NSCLC): > 100 µM
- TGI (SN12C renal): > 100 µM
- TGI (RPMI-8226 leukemia): > 100 µM
- TGI (SK-MEL-28 melanoma): > 100 µM
- TGI (M14 melanoma): > 100 µM
- TGI (NCI-H226 lung): > 100 µM
- TGI (CCRF-CEM leukemia): > 100 µM
- TGI (TK-10 renal): > 100 µM
- TGI (SK-MEL-2 melanoma): > 100 µM
- TGI (OVCAR-4 ovarian): > 100 µM
- TGI (M19-MEL melanoma): > 100 µM
- TGI (LOX IMVI melanoma): > 100 µM
- TGI (RXF 393 renal): > 100 µM
- TGI (DMS 273 small cell lung): > 100 µM
- TGI (RXF-631 renal): > 100 µM
- TGI (K-562 leukemia): > 100 µM
- TGI (MALME-3M melanoma): > 100 µM
- TGI (HL-60(TB) leukemia): > 100 µM

Structure (SMILES): COc1ccc(/C=C2\CCC(CN3CCOCC3)C2=O)cc1 (configuration not stated)
- TGI (NCI-H23 lung): 14.4 µM
- TGI (HOP-92 NSCLC): 6.65 µM
- TGI (DMS 114 small cell lung): 7.09 µM
- TGI (NCI-H460 lung): 41.3 µM
- TGI (KM20L2 colon): 13.5 µM
- TGI (OVCAR-8 ovarian): 7.35 µM
- TGI (MDA-N): 5.83 µM
- TGI (SK-MEL-5 melanoma): 12.7 µM
- TGI (SF-539 CNS): 13 µM
- TGI (SF-268 CNS): 16.4 µM
- TGI (SNB-75 CNS): 30.5 µM
- TGI (MDA-MB-435): 3.97 µM
- TGI (U251 CNS): 31.2 µM
- TGI (A498 renal): 21.4 µM
- TGI (NCI-H522 lung): 2.39 µM
- TGI (786-0 renal): 3.11 µM
- TGI (XF 498 CNS): 9.69 µM
- TGI (HOP-18 NSCLC): 18.3 µM
- TGI (SW-620 colon): 3.86 µM
- TGI (HCC-2998 colon): 10.9 µM
- TGI (UO-31 renal): 15.3 µM
- TGI (SR leukemia): 5.97 µM
- TGI (HCT-15 colon): 6.2 µM
- TGI (COLO 205 colon): 5.38 µM
- TGI (MOLT-4 leukemia): 6.29 µM
- TGI (EKVX NSCLC): 21.1 µM
- TGI (ACHN renal): 11.7 µM
- TGI (UACC-62 melanoma): 24.5 µM
- TGI (A549 NSCLC): 20.8 µM
- TGI (SK-OV-3 ovarian): 30 µM
- TGI (IGROV1 ovarian): 11.3 µM
- TGI (SNB-19 CNS): 26 µM
- TGI (HOP-62 NSCLC): 33.3 µM
- TGI (SN12C renal): 12.3 µM
- TGI (HT29 colon): 5.73 µM
- TGI (MCF7 breast): 9.58 µM
- TGI (LXFL 529 NSCLC): 3.04 µM
- TGI (OVCAR-5 ovarian): 19.5 µM
- TGI (RPMI-8226 leukemia): 3.57 µM
- TGI (SK-MEL-28 melanoma): 7.71 µM
- TGI (SF-295 CNS): 32.1 µM
- TGI (BT-549 breast): 5.54 µM
- TGI (CAKI-1 renal): 4.15 µM
- TGI (M14 melanoma): 5.26 µM
- TGI (NCI-H226 lung): 35.5 µM
- TGI (UACC-257 melanoma): 5.94 µM
- TGI (CCRF-CEM leukemia): > 21.3 µM
- TGI (OVCAR-3 ovarian): 9.36 µM
- TGI (TK-10 renal): 9.64 µM
- TGI (SK-MEL-2 melanoma): 9.66 µM
- TGI (OVCAR-4 ovarian): 24.1 µM
- TGI (KM12 colon): 16.2 µM
- TGI (M19-MEL melanoma): 30.5 µM
- TGI (DU-145 prostate): 4.02 µM
- TGI (LOX IMVI melanoma): 10.1 µM
- TGI (RXF 393 renal): 3.12 µM
- TGI (RXF-631 renal): 43.5 µM
- TGI (NCI/ADR-RES ovarian): 5.23 µM
- TGI (K-562 leukemia): 6.02 µM
- TGI (MALME-3M melanoma): 6.42 µM
- TGI (DLD-1 colon): 24.8 µM
- TGI (SNB-78 CNS): 27 µM
- TGI (HL-60(TB) leukemia): 11.2 µM
- TGI (PC-3 prostate): 11.7 µM
- TGI (HS 578T breast): > 100 µM

Structure (SMILES): CN1CCCC2[C@@H]3CCC4=C(O)C(=O)CC[C@]4(C)C3CC[C@@]21C (some centres not stated)
- TGI (NCI-H23 lung): > 100 µM
- TGI (HOP-92 NSCLC): > 100 µM
- TGI (DMS 114 small cell lung): > 100 µM
- TGI (NCI-H460 lung): > 100 µM
- TGI (KM20L2 colon): > 100 µM
- TGI (OVCAR-8 ovarian): > 100 µM
- TGI (SK-MEL-5 melanoma): > 100 µM
- TGI (SF-539 CNS): > 100 µM
- TGI (SF-268 CNS): > 100 µM
- TGI (SNB-75 CNS): > 100 µM
- TGI (U251 CNS): > 100 µM
- TGI (A498 renal): > 100 µM
- TGI (NCI-H522 lung): > 100 µM
- TGI (786-0 renal): > 100 µM
- TGI (XF 498 CNS): > 100 µM
- TGI (HOP-18 NSCLC): > 100 µM
- TGI (SW-620 colon): > 100 µM
- TGI (UO-31 renal): > 100 µM
- TGI (HCT-15 colon): > 100 µM
- TGI (COLO 205 colon): > 100 µM
- TGI (MOLT-4 leukemia): > 100 µM
- TGI (EKVX NSCLC): > 100 µM
- TGI (HCT-116 colon): > 100 µM
- TGI (ACHN renal): > 100 µM
- TGI (UACC-62 melanoma): > 100 µM
- TGI (A549 NSCLC): > 100 µM
- TGI (SK-OV-3 ovarian): > 100 µM
- TGI (IGROV1 ovarian): > 100 µM
- TGI (SNB-19 CNS): > 100 µM
- TGI (HOP-62 NSCLC): > 100 µM
- TGI (SN12C renal): > 100 µM
- TGI (HT29 colon): > 100 µM
- TGI (LXFL 529 NSCLC): > 100 µM
- TGI (OVCAR-5 ovarian): > 100 µM
- TGI (RPMI-8226 leukemia): > 100 µM
- TGI (SK-MEL-28 melanoma): > 100 µM
- TGI (SF-295 CNS): > 100 µM
- TGI (CAKI-1 renal): > 100 µM
- TGI (M14 melanoma): > 100 µM
- TGI (NCI-H226 lung): > 100 µM
- TGI (UACC-257 melanoma): > 100 µM
- TGI (CCRF-CEM leukemia): > 100 µM
- TGI (OVCAR-3 ovarian): > 100 µM
- TGI (TK-10 renal): > 100 µM
- TGI (SK-MEL-2 melanoma): > 100 µM
- TGI (OVCAR-4 ovarian): > 100 µM
- TGI (KM12 colon): > 100 µM
- TGI (LOX IMVI melanoma): > 100 µM
- TGI (RXF 393 renal): > 100 µM
- TGI (DMS 273 small cell lung): > 100 µM
- TGI (RXF-631 renal): > 100 µM
- TGI (K-562 leukemia): > 100 µM
- TGI (MALME-3M melanoma): > 100 µM
- TGI (HL-60(TB) leukemia): > 100 µM
